In PubChem BioAssay AID248 (DTP/NCI, 2004) one finds T/C data, which are given here for 19 compounds.

Values joined by “and” are separate entries in the source; they are usually repeats but may differ in a detail not shown here. Equal entries are not always repeated. Inconclusive results and toxic doses are left out.

The test relates to L1210 leukemia ip in BDF1 mice, survival T/C. As to the kind of experiment: NCI In Vivo Anticancer Drug Screen. Data for tumor model L1210 Leukemia (intraperitoneal) in B6D2F1 (BDF1) mice. The following applies: endpoint: mean survival time, higher = longer survival. Put shortly:
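Value reflects the ratio of survival in compound-treated mice to survival in vehicle-treated controls, with both groups carrying the same transplanted tumor.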

[1] abbreviates: dose: 100.0 mg/kg/injection, schedule: Q01DX009 (ip), vehicle: Klucel (hydroxypropylcellulose) (HPC).
Where [2] appears, read: dose: 200.0 mg/kg/injection, schedule: Q01DX009 (ip), vehicle: Klucel (hydroxypropylcellulose) (HPC).
[3] abbreviates: dose: 400.0 mg/kg/injection, schedule: Q01DX009 (ip), vehicle: Klucel (hydroxypropylcellulose) (HPC).
Setting [4] is: dose: 6.25 mg/kg/injection, schedule: Q04DX003 (ip), vehicle: saline.
Where [5] appears, read: dose: 12.5 mg/kg/injection, schedule: Q04DX003 (ip), vehicle: saline.
[6] abbreviates: dose: 25.0 mg/kg/injection, schedule: Q04DX003 (ip), vehicle: saline.
The mark [7] stands for this setting: dose: 50.0 mg/kg/injection, schedule: Q04DX003 (ip), vehicle: saline.
Where [8] appears, read: dose: 100.0 mg/kg/injection, schedule: Q04DX003 (ip), vehicle: saline.
The mark [9] stands for this setting: dose: 100.0 mg/kg/injection, schedule: Q04DX003 (ip), vehicle: Klucel (hydroxypropylcellulose) (HPC).
Where [10] appears, read: dose: 200.0 mg/kg/injection, schedule: Q04DX003 (ip), vehicle: Klucel (hydroxypropylcellulose) (HPC).
The mark [11] stands for this setting: dose: 400.0 mg/kg/injection, schedule: Q04DX003 (ip), vehicle: Klucel (hydroxypropylcellulose) (HPC).
Setting [12] is: dose: 200.0 mg/kg/injection, schedule: Q04DX003 (ip), vehicle: saline.
Where [13] appears, read: dose: 50.0 mg/kg/injection, schedule: Q01DX001 (ip), vehicle: saline.
The mark [14] stands for this setting: dose: 100.0 mg/kg/injection, schedule: Q01DX001 (ip), vehicle: saline.
Where [15] appears, read: dose: 50.0 mg/kg/injection, schedule: Q01DX009 (ip), vehicle: saline.
[16] abbreviates: dose: 100.0 mg/kg/injection, schedule: Q04DX002 (ip), vehicle: Klucel (hydroxypropylcellulose) (HPC).
Setting [17] is: dose: 200.0 mg/kg/injection, schedule: Q04DX002 (ip), vehicle: Klucel (hydroxypropylcellulose) (HPC).
[18] abbreviates: dose: 400.0 mg/kg/injection, schedule: Q04DX002 (ip), vehicle: Klucel (hydroxypropylcellulose) (HPC).
[19] abbreviates: dose: 12.5 mg/kg/injection, schedule: Q01DX009 (ip), vehicle: saline.
[20] abbreviates: dose: 25.0 mg/kg/injection, schedule: Q01DX009 (ip), vehicle: saline.

In the case of `CC[N+](CC)(CC)CCOc1cccc(OCC[N+](CC)(CC)CC)c1OCC[N+](CC)(CC)CC`, the T/C is, setting by setting: (dose: 5.0 mg/kg/injection, schedule: Q01DX001 (ip), vehicle: saline) 95 % of control; (dose: 10.0 mg/kg/injection, schedule: Q01DX001 (ip), vehicle: saline) 98 % of control.

Take `CC1(C(Cl)Cl)C=CC(=O)C=C1`: the T/C reads like this: under setting [1], 90 % of control; (dose: 100.0 mg/kg/injection, schedule: Q04DX003 (ip), vehicle: other) 103 % of control; under setting [2], 87 % of control; (dose: 200.0 mg/kg/injection, schedule: Q04DX003 (ip), vehicle: other) 111 % of control; under setting [3], 106 % of control; (dose: 400.0 mg/kg/injection, schedule: Q04DX003 (ip), vehicle: other) 95 % of control.

Consider `CCC(=O)c1ccc2c(c1)N(CCCN1CCN(CCO)CC1)c1ccccc1S2`, for which the T/C reads like this: (dose: 1.56 mg/kg/injection, schedule: Q03HX024 (ip), vehicle: saline) 114 % of control; (dose: 3.12 mg/kg/injection, schedule: Q03HX024 (ip), vehicle: saline) 101 % of control; (dose: 4.0 mg/kg/injection, schedule: Q01DX009 (ip), vehicle: saline) 101 % of control; (dose: 6.25 mg/kg/injection, schedule: Q01DX009 (ip), vehicle: saline) 104 % of control; (dose: 6.25 mg/kg/injection, schedule: Q03HX024 (ip), vehicle: saline) 110 % of control; under setting [4], 113 % of control. In addition, the T/C is, setting by setting: (dose: 8.0 mg/kg/injection, schedule: Q01DX009 (ip), vehicle: saline) 105 % of control; under setting [5], 93 % of control; (dose: 18.75 mg/kg/injection, schedule: Q01DX001 (ip), vehicle: saline) 110 % of control; under setting [6], 98 % of control; (dose: 32.0 mg/kg/injection, schedule: Q01DX009 (ip), vehicle: saline) 90 % of control; (dose: 37.5 mg/kg/injection, schedule: Q01DX001 (ip), vehicle: saline) 103 % of control. Besides, the T/C is 95 % of control under setting [7]; 119 % of control (dose: 75.0 mg/kg/injection, schedule: Q01DX001 (ip), vehicle: saline); 115 % of control under setting [8].

Turning to `CCCC(C)(CC)C(=O)O` (stereo not given), the T/C (dose: 75.0 mg/kg/injection, schedule: Q01DX001 (ip), vehicle: acetone) was 108 % of control; the T/C (dose: 150.0 mg/kg/injection, schedule: Q01DX001 (ip), vehicle: acetone) was 101 % of control; the T/C (dose: 300.0 mg/kg/injection, schedule: Q01DX001 (ip), vehicle: acetone) was 98 % of control.

Take `CC1C(N2CCOCC2)CS1(=O)=O` (stereo not given): the T/C was 92 % of control under setting [1]; 93 % of control under setting [9]; 94 % of control under setting [2]; 98 % of control under setting [10]; 103 % of control under setting [3]; 98 % of control under setting [11].

For the compound `COc1ccc(C)cc1NC(=O)Nc1cccc(C(F)(F)F)c1`, the T/C by setting is: under setting [1], 92 % of control; under setting [2], 86 % of control; under setting [3], 95 % of control.

With `C=CCc1ccc(OCCNC(=O)Nc2ccc(C)cc2[N+](=O)[O-])c(OC)c1`, the T/C was 87 % of control (dose: 50.0 mg/kg/injection, schedule: Q01DX009 (ip), vehicle: Klucel (hydroxypropylcellulose) (HPC)); 98 % of control under setting [1]; 91 % of control under setting [9]; 98 % of control under setting [2]; 96 % of control under setting [10]; 96 % of control under setting [11].

Turning to `O=C(COc1ccc2ccccc2c1)Nc1ccc[n+](Cc2ccc(S(=O)(=O)F)cc2)c1`, the T/C runs as follows: under setting [8], 106 % of control; under setting [12], 90 % of control; (dose: 400.0 mg/kg/injection, schedule: Q04DX003 (ip), vehicle: saline) 94 % of control.

Take `Cn1c(=O)c2[nH]c(C3CC4C=CC3C4)nc2n(C)c1=O` (stereo not given): the T/C is 93 % of control under setting [13]; 104 % of control under setting [14]; 98 % of control (dose: 200.0 mg/kg/injection, schedule: Q01DX001 (ip), vehicle: saline).

Take `CCNCCNC`: the T/C runs as follows: under setting [15], 96 % of control; (dose: 100.0 mg/kg/injection, schedule: Q01DX009 (ip), vehicle: saline) 101 % of control; under setting [8], 108 % of control; under setting [12], 101 % of control.

Turning to `CCOc1ccn(CC(=O)N2CCOCC2)c(=O)n1`, the T/C is 93 % of control (dose: 100.0 mg/kg/injection, schedule: Q01DX009 (ip), vehicle: water); 105 % of control (dose: 100.0 mg/kg/injection, schedule: Q04DX003 (ip), vehicle: water); 95 % of control (dose: 200.0 mg/kg/injection, schedule: Q01DX009 (ip), vehicle: water); 100 % of control (dose: 200.0 mg/kg/injection, schedule: Q04DX003 (ip), vehicle: water); 98 % of control (dose: 400.0 mg/kg/injection, schedule: Q01DX009 (ip), vehicle: water); 95 % of control (dose: 400.0 mg/kg/injection, schedule: Q04DX003 (ip), vehicle: water).

On to `Cc1ccc(C(=O)C=Nc2ccc(Br)cc2)cc1`, for which the T/C is, setting by setting: (dose: 100.0 mg/kg/injection, schedule: Q01DX001 (ip), vehicle: Klucel (hydroxypropylcellulose) (HPC)) 104 % of control; (dose: 200.0 mg/kg/injection, schedule: Q01DX001 (ip), vehicle: Klucel (hydroxypropylcellulose) (HPC)) 95 % of control; (dose: 400.0 mg/kg/injection, schedule: Q01DX001 (ip), vehicle: Klucel (hydroxypropylcellulose) (HPC)) 112 % of control.

On to `O=C1CCCC(=O)NNC(=O)Nc2ccc(cc2)-c2ccc(cc2)NC(=O)NN1`, for which the T/C was 104 % of control under setting [13]; 104 % of control under setting [14]; 96 % of control (dose: 400.0 mg/kg/injection, schedule: Q01DX001 (ip), vehicle: saline).

Consider `O=[N+]([O-])c1cccc(C=Nc2ccc(Nc3ccccc3)cc2)c1`, for which the T/C was 114 % of control under setting [16], 100 % of control under setting [17] and 111 % of control under setting [18].

As to `COc1ccccc1-n1c(O)c(N=Nc2ccccc2)c(=O)n(-c2ccc(Br)cc2)c1=S`, the T/C was 106 % of control (dose: 100.0 mg/kg/injection, schedule: Q04DX003 (ip), vehicle: saline with Tween-80); 100 % of control (dose: 200.0 mg/kg/injection, schedule: Q04DX003 (ip), vehicle: saline with Tween-80); 94 % of control (dose: 400.0 mg/kg/injection, schedule: Q04DX003 (ip), vehicle: saline with Tween-80).

For `Cc1ccc(C(SCC(N)C(=O)O)(c2ccccc2)c2ccc(C)cc2)cc1` (stereo not given), the T/C is 124 % of control (dose: 6.25 mg/kg/injection, schedule: Q01DX009 (ip), vehicle: other); 152 % of control (dose: 12.5 mg/kg/injection, schedule: Q01DX009 (ip), vehicle: other); 156 % of control and 197 % of control under setting [19]; 164 % of control (dose: 25.0 mg/kg/injection, schedule: Q01DX009 (ip), vehicle: other); 179 % of control and 195 % of control under setting [20]; 113 % of control and 88 % of control under setting [15].

Regarding `CCCCCc1c(C(F)(F)F)[nH]c(=O)[nH]c1=O`, the T/C was 90 % of control under setting [9], 101 % of control under setting [10] and 111 % of control under setting [11].

For the compound `NCCCC1C(CN)C2CC1C1C3CCC(C3)C21` (stereo not given), the T/C reads like this: (dose: 3.12 mg/kg/injection, schedule: Q04DX003 (ip), vehicle: saline) 100 % of control; under setting [4], 100 % of control; under setting [19], 106 % of control; under setting [5], 97 % of control; under setting [20], 110 % of control; under setting [6], 97 % of control and 103 % of control. Besides, the T/C reads like this: under setting [15], 106 % of control; under setting [7], 105 % of control; under setting [8], 98 % of control.

For the compound `O=C(O)COc1cccc(Cl)c1F`, the T/C reads like this: under setting [16], 100 % of control; under setting [17], 107 % of control; under setting [18], 118 % of control.
